# Measurements published in the supplement of paper PMC10307832.
# How the values were obtained:
# Assay in all cases: relative viability (nuclei count vs DMSO), 5 days (fraction); higher = more cells survive
# [1] = compound: CN1CCN(CC1)C2=CC(=C(C=C2)NC3=NC=C4C(=N3)N(C5=CC=CC=C5C(=O)N4C)C)OC [XMD8-85] + Cc1cc(Nc2cc(N3CCN(C)CC3)nc(Sc3ccc(NC(=O)C4CC4)cc3)n2)n[nH]1 [Tozasertib] (partner 0.1 µM)
# Outline: (§1)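 Lung cancer cell lines in 1536-well plates were dosed by pin tool the day after seeding, either with one drug alone or with a fixed anchor-drug dose plus five library-drug doses (not always all listed) in √10 steps. After 5 days, cells were fixed and their nuclei stained in one step (final 0.05% Triton X-100, 1% formaldehyde, 1 ug/ml Hoechst), then counted on 4× images. Relative viability is the nuclei count in treated wells divided by that in vehicle wells. Values are medians of duplicate plates.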
# [2] = compound: CN1CCN(CC1)C2=CC(=C(C=C2)NC3=NC=C4C(=N3)N(C5=CC=CC=C5C(=O)N4C)C)OC [XMD8-85] + COc1cccc2cc(-c3nc([C@H]4CC[C@H](C(=O)O)CC4)n4ncnc(N)c34)[nH]c12 [OSI-027] (partner 0.5 µM)
# Outline: as §1
# [3] = compound: CN1CCN(CC1)C2=CC(=C(C=C2)NC3=NC=C4C(=N3)N(C5=CC=CC=C5C(=O)N4C)C)OC [XMD8-85] + NC(=O)Nc1cc(-c2cccc(F)c2)sc1C(=O)N[C@H]1CCCNC1 [AZD7762] (partner 0.2 µM)
# Outline: as §1
# [4] = compound: O=C(O)C(Cc1ccccc1[N+](=O)[O-])=NNc1nc(-c2ccc(Cl)c(Cl)c2)cs1 (mixture of isomers) [4EGI-1] + Cc1nc(NC(=O)N2CCC[C@H]2C(N)=O)sc1-c1ccnc(C(C)(C)C(F)(F)F)c1 [Alpelisib] (partner 2 µM)
# Outline: as §1
Cell Line,relative viability ([1]; first compound 0.08 µM),relative viability ([1]; first compound 0.253 µM),relative viability ([1]; first compound 0.8 µM),relative viability ([1]; first compound 2.53 µM),relative viability ([1]; first compound 8 µM),relative viability ([2]; first compound 0.08 µM),relative viability ([2]; first compound 0.253 µM),relative viability ([2]; first compound 0.8 µM),relative viability ([2]; first compound 2.53 µM),relative viability ([2]; first compound 8 µM),relative viability ([3]; first compound 0.08 µM),relative viability ([3]; first compound 0.253 µM),relative viability ([3]; first compound 0.8 µM),relative viability ([3]; first compound 2.53 µM),relative viability ([4]; first compound 0.5 µM),relative viability ([4]; first compound 1.581 µM),relative viability ([4]; first compound 5 µM),relative viability ([4]; first compound 15.81 µM),relative viability ([4]; first compound 50 µM),relative viability ([3]; first compound 8 µM)
NCI-H1734,0.252,0.248,0.291,0.257,0.237,0.579,0.664,0.609,0.699,0.425,0.562,0.534,0.529,0.626,0.686,0.599,0.753,0.719,0.491,–
NCI-H441,0.758,0.601,0.657,0.768,0.408,0.522,0.65,0.654,0.699,0.68,1.21,1.01,1.12,1.11,0.787,0.758,0.656,0.743,0.301,0.562
NCI-H1355,0.473,0.467,0.525,0.376,0.314,0.385,0.43,0.403,0.448,0.309,0.678,0.697,0.798,0.817,0.876,0.79,0.772,0.477,0.504,–
HCC-44,0.802,0.898,1.15,0.51,0.356,0.51,0.55,0.46,0.456,0.3,1.05,1.06,1,1.01,0.86,0.485,0.79,0.532,0.182,1.06
NCI-H2085,0.745,0.913,0.791,0.644,0.502,0.712,0.969,0.697,0.64,0.474,0.851,0.936,0.948,0.993,1.19,1,1.03,0.831,0.626,0.881
NCI-H647,0.173,0.195,0.29,0.202,0.0891,0.568,0.681,0.667,0.602,0.685,0.306,0.371,0.586,0.503,1.16,1.17,1.41,0.647,0.108,0.198
NCI-H358,0.106,0.0979,0.119,0.11,0.0877,0.859,0.848,0.887,0.92,0.756,0.446,0.497,0.667,0.639,0.966,0.817,0.96,0.653,0.175,0.399
NCI-H1944,0.27,0.277,0.264,0.256,0.21,0.391,0.442,0.461,0.514,0.297,0.585,0.585,0.475,0.543,0.86,–,0.796,0.642,0.672,0.462
LU99A,0.281,0.257,0.252,0.253,0.239,0.264,0.31,0.306,0.33,0.258,0.328,0.504,0.407,0.378,0.613,–,0.538,0.539,0.171,0.341
HARA,0.103,0.42,0.104,0.101,0.0877,0.467,0.574,0.523,0.478,0.229,0.314,0.269,0.303,0.283,0.935,0.921,0.837,0.833,0.295,0.273
